Structures are written as SMILES.

The data set can be described thus: HILIC, Waters ACQUITY UPLC BEH Amide, 100 × 2.1 mm, 1.7 µm; A: water + 0.125% formic acid + 10 mM ammonium formate; B: 5% water + 95% acetonitrile + 0.125% formic acid + 10 mM ammonium formate; gradient (min/%B) 0/100 2/100 7.7/70 9.5/40 10.25/30 12.75/100 17/100. As to conditions: stereoisomer not certain.
For the compound `Cc1ccccc1-n1c(C)nc2ccccc2c1=O` [Methaqualone], the LC retention time was found to be 1.1 min. In the case of `CSCCC(N)C(=O)O` (stereo unspecified) [Methionine], the LC retention time turned out to be 7.37 min. The result for `CS(=O)CCC(N)C(=O)O` (stereo unspecified) [Methioninesulfoxide] reads 8.62 min; that for `C=CCC1(C(C)C#CCC)C(=O)NC(=O)N(C)C1=O` (stereo unspecified) [Methohexital], 6.9 min; that for `CN(Cc1cnc2nc(N)nc(N)c2n1)c1ccc(C(=O)NC(CCC(=O)O)C(=O)O)cc1` (stereo unspecified) [Methotrexate], 7.67 min.

Consider `COc1ccc(OC)c(C(O)C(C)N)c1` (stereo unspecified) [Methoxamine], for which the LC retention time worked out at 4.75 min. `CCC=CCC1C(=O)CCC1CC(=O)OC` (stereo unspecified) [Methyl jasmonate]: the LC retention time is 1.04 min. The result for `CC(O)C(C)C(=O)O` (stereo unspecified) [Methyl-3-hydroxybutyric acid] reads 6.22 min. As for `COC(=O)c1cc(O)c(O)c(O)c1` [Methylgallate], the LC retention time is 1.43 min. The value for `COC(=O)CN` [Methylglycinate] was 5.29 min; that for `CC12CCC(=O)C=C1CCC1C2CCC2(C)C1CCC2(C)O` (stereo unspecified) [Methyltestosterone] was 1.04 min; that for `CNC(Cc1ccc(O)cc1)C(=O)[O-]` (stereo unspecified) [Methyltyrosinate] was 4.23 min. The result for `CCC1(CC)C(=O)NCC(C)C1=O` (stereo unspecified) [Methyprylon] reads 1.18 min. The value for `Cc1ncc([N+](=O)[O-])n1CCO` [Metronidazole] was 1.17 min; that for `CCC(C)C(=O)OC1CCC=C2C=CC(C)C(CCC3CC(O)CC(=O)O3)C21` (stereo unspecified) [Mevastatin] was 0.99 min; that for `Cc1ncc2n1-c1ccc(Cl)cc1C(c1ccccc1F)=NC2` [Midazolam] was 1.29 min. For `CC#CC1(O)CCC2C3CCC4=CC(=O)CCC4=C3C(c3ccc(N(C)C)cc3)CC21C` (stereo unspecified) [Mifepristone], the LC retention time came out at 1 min. The value for `OCCN1CC(O)C(O)C(O)C1CO` (stereo unspecified) [Miglitol] was 8.12 min; that for `CCN(CC)C(=O)C1(c2ccccc2)CC1CN` (stereo unspecified) [Milnacipran] was 3.23 min. Turning to `Cc1[nH]c(=O)c(C#N)cc1-c1ccncc1` [Milrinone], the LC retention time was found to be 1.6 min. Take `CN1CCN2c3ncccc3Cc3ccccc3C2C1` (stereo unspecified) [Mirtazapine]: the LC retention time came to 3.08 min. The value for `O=C(NCCN1CCOCC1)c1ccc(Cl)cc1` [Moclobemide] was 2.03 min. Regarding `NC(=O)CS(=O)C(c1ccccc1)c1ccccc1` (stereo unspecified) [Modafinil], the LC retention time came to 1.27 min. `CCCCCCCCC=CCCCCCCCC(=O)OCC(O)CO` (stereo unspecified) [Monoolein]: the LC retention time worked out at 1.19 min.

For the compound `CCOc1cc(N)c(Cl)cc1C(=O)NCC1CN(Cc2ccc(F)cc2)CCO1` (stereo unspecified) [Mosapride], the LC retention time worked out at 1.24 min. `COc1c(N2CC3CCCNC3C2)c(F)cc2c(=O)c(C(=O)O)cn(C3CC3)c12` (stereo unspecified) [Moxifloxacin]: the LC retention time is 4.69 min. The result for `COc1nc(C)nc(Cl)c1NC1=NCCN1` [Moxonidine] reads 3.28 min. Consider `CC(OC1C(N)C(O)OC(CO)C1O)C(=O)O` (stereo unspecified) [Muramic acid], for which the LC retention time is 8.28 min.

`CN(C)c1nc2c(ncn2C2OC(CO)C(O)C2O)c(=O)[nH]1` (stereo unspecified) [N2,N2-Dimethylguanosine]: the LC retention time turned out to be 5.62 min. The value for `CNc1nc2c(ncn2C2OC(CO)C(O)C2O)c(=O)[nH]1` (stereo unspecified) [N2-Methylguanosine] was 6.4 min; that for `CC(C)=CCNc1ncnc2c1ncn2C1OC(CO)C(O)C1O` (stereo unspecified) [N6-Isopentenyladenosine] was 1.48 min; that for `CC(=O)NCCCCNCCCN` [N8-Acetylspermidine] was 8.87 min. The value for `CN(C)C(CCCN=C(N)N)C(=O)O` (stereo unspecified) [N,N-Dimethylarginine] was 9.1 min; that for `CN(C)C=O` [N,N-Dimethylformamide] was 1.29 min. The result for `CN(C)CC(=O)O` [N,N-Dimethylglycine] reads 7.4 min; that for `CC(=O)Nc1ccc2c(c1)Cc1ccccc1-2` [N-2-Fluorenylacetamide], 4.74 min. With `OCC1OC(n2cnc3c(NC4CCCC4O)ncnc32)C(O)C1O` (stereo unspecified) [N-2-Hydroxycyclopentyladenosine], the LC retention time amounted to 3.48 min. Regarding `O=C(O)CNC(=O)c1ccco1` [N-(2-Furoyl)glycine], the LC retention time worked out at 4.01 min.

Consider `CC(=O)NC(CCCN=C(N)N)C(=O)O` [N-.alpha.-Acetyl-L-arginine], for which the LC retention time amounted to 8.16 min. The value for `CC(=O)NCCc1c[nH]c2ccc(O)cc12` [N-Acetyl-5-hydroxytryptamine] was 1.43 min. Take `CC(=O)NC(CC(=O)O)C(=O)NC(CCC(=O)O)C(=O)O` (stereo unspecified) [N-Acetyl-Asp-Glu]: the LC retention time came out at 8.11 min. The value for `CC(=O)NCCC(=O)NC(Cc1cnc[nH]1)C(=O)O` [N-Acetyl-L-carnosine] was 8.35 min; that for `CC(=O)N[C@@H](CCC(N)=O)C(=O)O` [N-Acetyl-L-glutamine] was 8.18 min; that for `CC(=O)NC(C)C(=O)O` (stereo unspecified) [N-Acetylalanine] was 4.83 min. The result for `CC(=O)N1CCCCCC1=O` [N-Acetylcaprolactam] reads 2.3 min; that for `CC(=O)NC(CS)C(=O)O` (stereo unspecified) [N-Acetylcysteine], 5.28 min. Turning to `CC(=O)Nc1ccn(C2OC(CO)C(O)C2O)c(=O)n1` (stereo unspecified) [N-Acetylcytidine], the LC retention time was 5.08 min. On to `CC(=O)NC(CCC(=O)O)C(=O)O` (stereo unspecified) [N-Acetylglutamic acid], for which the LC retention time came out at 7.67 min. The result for `CC(=O)NC(Cc1cnc[nH]1)C(=O)O` (stereo unspecified) [N-Acetylhistidine] reads 8.07 min; that for `CC(=O)NC(CC(C)C)C(=O)O` (stereo unspecified) [N-Acetylleucine], 2.29 min; that for `CC(=O)NC1C(O)OC(CO)C(O)C1O` (stereo unspecified) [N-Acetylmannosamine], 7.01 min.

Take `CSCCC(NC(C)=O)C(=O)O` (stereo unspecified) [N-Acetylmethionine]: the LC retention time was 3.23 min. The result for `CC(=O)NC1C(O)CC(O)(C(=O)O)OC1C(O)C(O)CO` (stereo unspecified) [N-Acetylneuraminic acid] reads 9.26 min; that for `CC(=O)NC(Cc1ccccc1)C(=O)O` (stereo unspecified) [N-Acetylphenylalanine], 2.61 min; that for `CC(=O)NC(CO)C(=O)O` (stereo unspecified) [N-Acetylserine], 7.67 min. The result for `CC(=O)NC(Cc1c[nH]c2ccccc12)C(=O)O` (stereo unspecified) [N-Acetyltryptophan] reads 2.81 min; that for `O=C(O)CNC(=O)OCc1ccccc1` [N-Benzyloxycarbonylglycine], 7.67 min. For the compound `CC(C)CC(NC(=O)OCc1ccccc1)C(=O)O` (stereo unspecified) [N-Carbobenzyloxyleucine], the LC retention time turned out to be 1.28 min.

Regarding `O=C(O)CNC(=O)C=Cc1ccccc1` [N-Cinnamoylglycine], the LC retention time came to 2.95 min.

`O=CNC1CCCCC1` [N-Cyclohexylformamide]: the LC retention time is 1.2 min. The result for `CSCCC(NC=O)C(=O)O` (stereo unspecified) [N-Formylmethionine] reads 3.93 min; that for `CC(C)C(=O)NCC(=O)O` [N-Isobutyrylglycine], 3.6 min; that for `CC(C)CC(=O)NCC(=O)O` [N-Isovalerylglycine], 2.94 min. The result for `CNC(C)C(=O)O` (stereo unspecified) [N-Methylalanine] reads 7.67 min; that for `CNc1ccccc1` [N-Methylaniline], 1.06 min; that for `CNc1ccccc1C(=O)O` [N-Methylanthranilic acid], 1.22 min. Regarding `CNC(CC(=O)O)C(=O)O` (stereo unspecified) [N-Methylaspartic acid], the LC retention time worked out at 2.53 min. The value for `CCC(C)C(NC)C(=O)O` (stereo unspecified) [N-Methylisoleucine] was 6.44 min. The value for `CNC(CC(C)C)C(=O)O` (stereo unspecified) [N-Methylleucine] was 6.45 min; that for `CNCCCCC(N)C(=O)O` (stereo unspecified) [N-Methyllysine] was 9.36 min; that for `CN1CCC(c2ccc(F)cc2)C(COc2ccc3c(c2)OCO3)C1` (stereo unspecified) [N-Methylparoxetine] was 2.2 min. In the case of `CNC(Cc1ccccc1)C(=O)O` (stereo unspecified) [N-Methylphenylalanine], the LC retention time was determined as 6.22 min. On to `CN1CCCC1C(=O)O` (stereo unspecified) [N-Methylproline], for which the LC retention time stood at 7.11 min. For `CNC(C(=O)O)C(C)O` (stereo unspecified) [N-Methylthreonine], the LC retention time is 7.68 min. The result for `CNC(Cc1ccc(O)cc1)C(=O)O` (stereo unspecified) [N-Methyltyrosine] reads 6.79 min; that for `CNC(C(=O)O)C(C)C` (stereo unspecified) [N-Methylvaline], 6.99 min. The result for `CC(=O)NC(CCCN)C(=O)O` [N-alpha-Acetyl-L-ornithine] reads 8.31 min; that for `CNCCc1cnc[nH]1` [N-alpha-methylhistamine], 7.48 min.

Take `CC(=O)NCCCCC(N)C(=O)O` (stereo unspecified) [N-epsilon-Acetyllysine]: the LC retention time amounted to 8.03 min. For `COc1ccc(NC=O)c(C(=O)CCNC(C)=O)c1` [N-gamma-Acetyl-N-2-formyl-5-methoxykynurenamine], the LC retention time was 1.32 min. `CC(=O)NCCc1cnc[nH]1` [N-omega-Acetylhistamine]: the LC retention time was found to be 6 min. As for `CC(=O)N[C@@H](CCCCN)C(=O)O` [N.alpha.-Acetyl-L-lysine], the LC retention time was found to be 8.15 min. `CN[C@@H](CCCCN)C(=O)O` [N.alpha.-Methyl-L-lysine]: the LC retention time turned out to be 7.35 min. Turning to `C[N+](C)(C)CCCCC(N)C(=O)[O-]` (stereo unspecified) [NEPSILON,NEPSILON,NEPSILON-TRIMETHYLLYSINE], the LC retention time amounted to 9.29 min.

Consider `CCCCN1CCCC1CNC(=O)c1cc(C#N)c2ccccc2c1OC` (stereo unspecified) [Nafadotride], for which the LC retention time was 2.05 min. In the case of `COc1ccccc1N1CCN(CC(O)COc2cccc3ccccc23)CC1` (stereo unspecified) [Naftopidil], the LC retention time amounted to 1.99 min.

Source of the values: the RepoRT retention time repository.
